Values quoted from earlier work in US20200085832A1, “DEUTERATED ANALOGS OF AN ORGANIC COMPOUND” (Agios Pharmaceuticals, Inc., priority 2019, published 2020).

Assays:
[1] = tested on: mIDH1-driven gliomas; settings: some model systems
[2] = tested on: mutant IDH1 (mIDH1); settings: D. Rohle et al. Science 340:626-630 (2013)
[3] = tested on: mutant IDH2 (mIDH2); settings: D. Rohle et al. Science 340:626-630 (2013)
[4] = tested on: mutant IDH1; settings: biochemical and cellular assays
[5] = tested on: mutant IDH2; settings: biochemical and cellular assays

Cc1ccccc1C(C(=O)NC1CCCCC1)N(C(=O)Cn1ccnc1C)c1cccc(F)c1 (centres unmarked) [AGI-5198]
growth of mIDH1-driven gliomas [1]: repress growth of mIDH1-driven gliomas | inhibition of mutant IDH1 [2]: inhibit mutant IDH1 (mIDH1) | inhibition of mutant IDH2 [3]: not mutant IDH2 (mIDH2)

C[C@@H](Nc1nc(N[C@H](C)C(F)(F)F)nc(-c2cccc(Cl)n2)n1)C(F)(F)F [Compound X, 6-(6-chloropyridin-2-yl)-N^2,N^4-bis((R)-1,1,1-trifluoropropan-2-yl)-1,3,5-triazine-2,4-diamine]
inhibitor of mutant IDH1 protein [4]: inhibitor of mutant IDH1 and IDH2 proteins | inhibitor of mutant IDH2 protein [5]: inhibitor of mutant IDH1 and IDH2 proteins
